Experimental findings from patent publication US4948782A, “A method of promoting the growth of domestic animals with erythromycin derivative containing composition” (Kitasato Kenkyusho, priority 1987, dated 1990) are described below.

In brackets after ≈: the same amount, converted by molar mass. Like-named read-outs stand apart in the source and are kept apart here.

Holding throughout (format): cell-based
Experiment [1] has as its system Escherichia coli NIHJ. In words: MIC, Escherichia coli NIHJ (EC).
The test system of experiment [2] is Staphylococcus aureus ATCC 6538P. In words: MIC, Staphylococcus aureus ATCC 6538P (SA(1)). To be noted: for MIC: Staphylococcus aureus, ATCC6538P, read-out: MIC SA (1). An excerpt:
(§1) The minimum inhibitory concentrations (MIC: mcg/ml) of the erythromycin derivatives of the present invention and the control erythromycin derivative (*) as the known growth promoting agent on typical test bacteria are shown in the following Tables 1 to 5.
SA(1): Staphylococcus aureus ATCC 6538P

The test system of experiment [3] is Bacillus subtilis. In words: MIC, Bacillus subtilis (BS). To be noted: for MIC: read-out: MIC BS.
Experiment [4] deals with Klebsiella pneumoniae ATCC 10031. In words: MIC, Klebsiella pneumoniae ATCC 10031 (KP).
The test system of experiment [5] is Staphylococcus aureus FDA 209P. In words: MIC, Staphylococcus aureus FDA 209P (SA(2)). To be noted: Staphylococcus aureus, FDA209P, read-out: MIC SA (2).
Text: as §1
SA(2): Staphylococcus aureus FDA 209P

Experiment [6] deals with Bacillus cereus IFO 3001. In words: MIC, Bacillus cereus IFO 3001 (BC). To be noted: for MIC: Bacillus cereus.
The mark [7] stands for this setting: Staphylococcus aureus ATCC 6538P.
[8] abbreviates: ATCC10031, Klebsiella pneumoniae ATCC 10031, read-out: MIC KP.
[9] abbreviates: IFO3001, Bacillus cereus IFO 3001, read-out: MIC BC.

Consider `CC[C@H]1OC(=O)[C@H](C)[C@@H](O[C@H]2C[C@@](C)(OC)[C@@H](O)[C@H](C)O2)[C@H](C)[C@@H](O[C@@H]2O[C@H](C)C[C@H](N(C)C)[C@H]2O)[C@@]2(C)CC(C)C(O2)[C@H](C)[C@@H](O)[C@]1(C)O` (stereo partly drawn) [*1, reference compound], for which the MIC in experiment [1] is over 100 µg/mL; in experiment [2] (setting [7]), 12.5 µg/mL (≈ 17.4 µM); in experiment [3], 6.25 µg/mL (≈ 8.71 µM); in experiment [4] (setting [8]), over 100 µg/mL; in experiment [5] (Staphylococcus aureus FDA 209P), 12.5 µg/mL (≈ 17.4 µM); in experiment [6] (setting [9]), 12.5 µg/mL (≈ 17.4 µM).
For the compound `CC[C@H]1OC(=O)[C@H](C)[C@@H](O[C@H]2C[C@@](C)(OC)[C@@H](O)[C@H](C)O2)[C@H](C)[C@@H](O[C@@H]2O[C@H](C)C[C@H](N(C)C)[C@H]2O)[C@@]2(C)CC(C)C3(O[C@@]1(C)[C@H](O)[C@H]3C)O2` (stereo partly drawn) [*2 (EM202), Anhydroerythromycin A, reference compound], the MIC in experiment [2] (setting [7]) and in experiment [5] (Staphylococcus aureus FDA 209P) was 12.5 µg/mL (≈ 17.5 µM) throughout.
For `CC[C@H]1OC(=O)[C@H](C)[C@@H](O[C@H]2C[C@@](C)(OC)[C@@H](O)[C@H](C)O2)[C@H](C)[C@@H](O[C@@H]2O[C@H](C)C[C@H](N(C)C)[C@H]2O)[C@](C)(O)C[C@@H](C)C(=O)[C@H](C)[C@@H](O)[C@]1(C)O` [*3, Erythromycin A, reference compound], the minimum inhibitory concentration (MIC) in experiment [1] stood at 25 µg/mL (≈ 34.1 µM); in experiment [2], 0.2 µg/mL (≈ 0.273 µM); in experiment [3], 0.2 µg/mL (≈ 0.273 µM); in experiment [4] (Klebsiella pneumoniae, ATCC10031, read-out: MIC KP), 6.25 µg/mL (≈ 8.52 µM); in experiment [5] it was 0.4 µg/mL (≈ 0.545 µM); in experiment [6] (IFO3001, read-out: MIC BC), 0.2 µg/mL (≈ 0.273 µM).
Consider `CCC1OC(=O)C(C)C(OC2CC(C)(OC)C(O)C(C)O2)C(C)C(OC2OC(C)CC([N+](C)(C)C)C2O)C2(C)CC(C)=C(O2)C(C)C(O)C1(C)O` (stereo not drawn) [Compound 1], for which the MIC in experiment [1], in experiment [2] (setting [7]), in experiment [3], in experiment [4] (setting [8]), in experiment [5] (Staphylococcus aureus FDA 209P) and in experiment [6] (setting [9]) was over 100 µg/mL throughout.
In the case of `CCC1OC(=O)C(C)C(OC2CC(C)(OC)C(O)C(C)O2)C(C)C(OC2OC(C)CC([N+](C)(C)C)C2O)C2(C)CC(C)=C(O2)C(C)C(OC(C)=O)C1(C)OC(C)=O` (stereo not drawn) [Compound 2], the MIC was over 100 µg/mL in experiment [1]; 100 µg/mL in experiment [2] (setting [7]); 100 µg/mL in experiment [3]; over 100 µg/mL in experiment [4] (setting [8]); 100 µg/mL in experiment [5] (Staphylococcus aureus FDA 209P); 100 µg/mL in experiment [6] (setting [9]).
On to `CCC1OC(=O)C(C)C(OC2CC(C)(OC)C(O)C(C)O2)C(C)C(OC2OC(C)CC([N+](C)(C)C)C2O)C2(C)CC(C)=C(O2)C(C)C(OS(C)(=O)=O)C1(C)O` (stereo not drawn) [Compound 3], for which the minimal inhibitory concentration (MIC) in experiment [1], in experiment [2] (setting [7]), in experiment [3], in experiment [4] (setting [8]), in experiment [5] (Staphylococcus aureus FDA 209P) and in experiment [6] (setting [9]) was over 100 µg/mL in each case.
Regarding `CCC1OC(=O)C(C)C(OC2CC(C)(OC)C(OC=O)C(C)O2)C(C)C(OC2OC(C)CC([N+](C)(C)C)C2O)C2(C)CC(C)=C(O2)C(C)C(OS(C)(=O)=O)C1(C)O` (stereo not drawn) [Compound 4], the MIC in experiment [1], in experiment [2] (setting [7]), in experiment [3], in experiment [4] (setting [8]), in experiment [5] (Staphylococcus aureus FDA 209P) and in experiment [6] (setting [9]) was over 100 µg/mL throughout.
For `CCC1OC(=O)C(C)C(OC2CC(C)(OC)C(O)C(C)O2)C(C)C(OC2OC(C)CC([N+](C)(C)CC)C2O)C2(C)CC(C)=C(O2)C(C)C(O)C1(C)O` (stereo not drawn) [Compound 5], the minimum inhibitory concentration (MIC) in experiment [1], in experiment [2] (setting [7]), in experiment [3], in experiment [4] (setting [8]), in experiment [5] (Staphylococcus aureus FDA 209P) and in experiment [6] (setting [9]) was over 100 µg/mL each time.
For the compound `CCC[N+](C)(C)C1CC(C)OC(OC2C(C)C(OC3CC(C)(OC)C(O)C(C)O3)C(C)C(=O)OC(CC)C(C)(O)C(O)C(C)C3=C(C)CC2(C)O3)C1O` (stereo not drawn) [Compound 6], the minimal inhibitory concentration (MIC) in experiment [1], in experiment [2] (setting [7]), in experiment [3], in experiment [4] (setting [8]), in experiment [5] (Staphylococcus aureus FDA 209P) and in experiment [6] (setting [9]) was over 100 µg/mL in each case.
For `CCC1OC(=O)C(C)C(OC2CC(C)(OC)C(O)C(C)O2)C(C)C(OC2OC(C)CC([N+](C)(C)C)C2OC(C)=O)C2(C)CC(C)=C(O2)C(C)C(O)C1(C)O` (stereo not drawn) [Compound 7], the MIC in experiment [1] was over 100 µg/mL; in experiment [2] (setting [7]), 100 µg/mL; in experiment [3], over 100 µg/mL; in experiment [4] (setting [8]), over 100 µg/mL; in experiment [5] (Staphylococcus aureus FDA 209P), over 100 µg/mL; in experiment [6] (setting [9]), over 100 µg/mL.
For the compound `CCC1OC(=O)C(C)C(OC2CC(C)(OC)C(O)C(C)O2)C(C)C(OC2OC(C)CC(NC)C2O)C2(C)CC(C)=C(O2)C(C)C(O)C1(C)O` (stereo not drawn) [Compound 8], the MIC in experiment [1], in experiment [2] (setting [7]), in experiment [3], in experiment [4] (setting [8]), in experiment [5] (Staphylococcus aureus FDA 209P) and in experiment [6] (setting [9]) was over 100 µg/mL in each case.
Turning to `CCC1OC(=O)C(C)C(OC2CC(C)(OC)C(O)C(C)O2)C(C)C(OC2OC(C)CC(N)C2O)C2(C)CC(C)=C(O2)C(C)C(O)C1(C)O` (stereo not drawn) [Compound 9], the MIC in experiment [1], in experiment [2] (setting [7]), in experiment [3], in experiment [4] (setting [8]), in experiment [5] (Staphylococcus aureus FDA 209P) and in experiment [6] (setting [9]) was over 100 µg/mL each time.
Regarding `CCC1OC(=O)C(C)C(OC2CC(C)(OC)C(O)C(C)O2)C(C)C(OC2OC(C)CC(N(C)CC)C2O)C2(C)CC(C)=C(O2)C(C)C(O)C1(C)O` (stereo not drawn) [Compound 10], the minimum inhibitory concentration (MIC) in experiment [1], in experiment [2] (setting [7]), in experiment [3], in experiment [4] (setting [8]), in experiment [5] (Staphylococcus aureus FDA 209P) and in experiment [6] (setting [9]) was over 100 µg/mL in each case.
Consider `CCCCN(C)C1CC(C)OC(OC2C(C)C(OC3CC(C)(OC)C(O)C(C)O3)C(C)C(=O)OC(CC)C(C)(O)C(O)C(C)C3=C(C)CC2(C)O3)C1O` (stereo not drawn) [Compound 11], for which the MIC in experiment [1], in experiment [2] (setting [7]), in experiment [3], in experiment [4] (setting [8]), in experiment [5] (Staphylococcus aureus FDA 209P) and in experiment [6] (setting [9]) was over 100 µg/mL each time.
`CCC1OC(=O)C(C)C(OC2CC(C)(OC)C(O)C(C)O2)C(C)C(OC2OC(C)CC([N+](C)(CC)CC)C2O)C2(C)CC(C)=C(O2)C(C)C(O)C1(C)O` (stereo not drawn) [Compound 12]: the MIC in experiment [1], in experiment [2] (setting [7]), in experiment [3], in experiment [4] (setting [8]), in experiment [5] (Staphylococcus aureus FDA 209P) and in experiment [6] (setting [9]) was over 100 µg/mL each time.
As for `CCC1OC(=O)C(C)C(OC2CC(C)(OC)C(O)C(C)O2)C(C)C(OC2OC(C)CC([N+](C)(C)CC)C2O)C2(C)CC(C)=C(O2)C(C)C(O)C1(C)O` (stereo not drawn) [Compound 19], in experiment [1], the “MIC EC” value was over 100 µg/mL. Further, the “MIC SA (1)” value in experiment [2] (setting [7]) was over 100 µg/mL. Further, the “MIC BS” value in experiment [3] is over 100 µg/mL. The “MIC KP” value in experiment [4] (Klebsiella pneumoniae ATCC 10031) was over 100 µg/mL. The “MIC BC” value in experiment [6] (Bacillus cereus IFO 3001) is over 100 µg/mL.
In the case of `CCC1OC(=O)C(C)C(OC2CC(C)(OC)C(O)C(C)O2)C(C)C(OC2OC(C)CC([N+](C)(C)CC3CC3)C2O)C2(C)CC(C)=C(O2)C(C)C(O)C1(C)O` (stereo not drawn) [Compound 50], the MIC in experiment [1] was over 100 µg/mL; in experiment [2] (setting [7]), 100 µg/mL; in experiment [3], over 100 µg/mL; in experiment [4] (setting [8]), over 100 µg/mL; in experiment [5] (Staphylococcus aureus FDA 209P), over 100 µg/mL.

Usually MIC stands for the lowest concentration found to suppress growth.
